Assays:
Alopecurus myosuroides = assay: Herbicidal effect pre-emergence; format: in vivo; settings: 320 g/ha, visual grading after ca. 3 weeks vs untreated controls
From the text: (§1) Herbicidal activities of the compounds of the formulae (G1) or (G2) according to the invention were investigated against the following harmful plants: • ALOMY=Alopecurus myosuroides • ECHCG=Echinochloa crus-galli • SETVI=Setaria viridis • ABUTH=Abutilon theophrasti • AMARE=Amaranthus retroflexus • PHBPU=Pharbitis purpurea • POLCO=Polygonum convolvulus (=Fallopia convolvulus) • STEME=Stellaria media • VIOTR=Viola tricolor
(§2) Seeds of mono- and dicotyledonous weed plants and crop plants are sown in wood-fiber pots in sandy loam and covered with soil. The compounds according to the invention, formulated in the form of wettable powders (WP) or as emulsifiable concentrates (EC), are then applied to the surface of the covering soil as aqueous suspension or emulsion, with the addition of 0.5% of an additive, at an application rate of 600 l of water/ha (converted).
(§3) Following treatment, the pots are placed in a greenhouse and kept under optimum growth conditions for the test plants. The visual grading of the damage to the test plants is carried out after ca. 3 weeks in comparison to untreated controls (herbicidal effect in percent (%): 100% effect=plants have died off, 0% effect=as control plants).

Amaranthus retroflexus [1] = assay: Herbicidal effect pre-emergence; format: in vivo; settings: 320 g/ha, visual grading after ca. 3 weeks vs untreated controls
From the text: as §1, §2, §3

Setaria viridis [2] = assay: Herbicidal effect pre-emergence; format: in vivo; settings: 320 g/ha, visual grading after ca. 3 weeks vs untreated controls
From the text: as §1, §2, §3

Stellaria media [3] = assay: Herbicidal effect pre-emergence; format: in vivo; settings: 320 g/ha, visual grading after ca. 3 weeks vs untreated controls
From the text: as §1, §2, §3

Viola tricolor [4] = assay: Herbicidal effect pre-emergence; format: in vivo; settings: 320 g/ha, visual grading after ca. 3 weeks vs untreated controls
From the text: as §1, §2, §3

MATIN [5] = assay: Herbicidal effect pre-emergence; format: in vivo, Matricaria inodora; settings: 320 g/ha, visual grading after ca. 3 weeks vs untreated controls
From the text: as §2, §3

Amaranthus retroflexus [6] = assay: Herbicidal effect post-emergence; format: in vivo; settings: 320 g/ha
From the text: as §1
(§4) Seeds of mono- and dicotyledonous weed plants and crop plants are sown in wood-fiber pots in sandy loam, covered with soil and grown in a greenhouse under controlled growth conditions. 2 to 3 weeks after sowing, the test plants are sprayed in the single-leaf stage. The compounds according to the invention, formulated in form of wettable powders (WP) or as emulsifiable concentrates (EC), are then sprayed onto the green plant parts as aqueous suspension or emulsion, with the addition of 0.5% of an additive, at an application rate of 600 l of water/ha (converted). After the test plants had been in the greenhouse for ca. 3 weeks under optimum growth conditions, the effect of the preparations is assessed visually in comparison with untreated controls (herbicidal effect in percent (%): 100% effect=plants have died off, 0% effect=as control plants).

Pharbitis purpurea = assay: Herbicidal effect post-emergence; format: in vivo; settings: 320 g/ha, visual grading after ca. 3 weeks (Table 7)
From the text: as §1, §4

[7] = tested on: Polygonum convolvulus (=Fallopia convolvulus); assay: Herbicidal effect post-emergence; format: in vivo; settings: 320 g/ha, visual grading after ca. 3 weeks (Table 7)
From the text: as §1, §4

Setaria viridis [8] = assay: Herbicidal effect post-emergence; format: in vivo; settings: 320 g/ha
From the text: as §1, §4

Stellaria media [9] = assay: Herbicidal effect post-emergence; format: in vivo; settings: 320 g/ha, visual grading after ca. 3 weeks (Table 7)
From the text: as §1, §4

Viola tricolor [10] = assay: Herbicidal effect post-emergence; format: in vivo; settings: 320 g/ha
From the text: as §1, §4

MATIN [11] = assay: Herbicidal effect post-emergence; format: in vivo, Matricaria inodora; settings: 320 g/ha, visual grading after ca. 3 weeks (Table 7)
From the text: as §4

[12] = visual grading after ca. 3 weeks (Table 7)
[13] = visual grading after ca. 3 weeks (Table 9)

| SMILES | herbicidal effect ALOMY (Alopecurus myosuroides) [%] | herbicidal effect AMARE (Amaranthus retroflexus [1]) [%] | herbicidal effect SETVI (Setaria viridis [2]) [%] | herbicidal effect STEME (Stellaria media [3]) [%] | herbicidal effect VIOTR (Viola tricolor [4]) [%] | herbicidal effect MATIN (MATIN [5]) [%] | herbicidal effect AMARE (Amaranthus retroflexus [6]; [12]) [%] | herbicidal effect PHBPU (Pharbitis purpurea) [%] | herbicidal effect POLCO [7] [%] | herbicidal effect SETVI (Setaria viridis [8]; [12]) [%] | herbicidal effect STEME (Stellaria media [9]) [%] | herbicidal effect VIOTR (Viola tricolor [10]; [12]) [%] | herbicidal effect MATIN (MATIN [11]) [%] | herbicidal effect AMARE (Amaranthus retroflexus [6]; [13]) [%] | herbicidal effect SETVI (Setaria viridis [8]; [13]) [%] | herbicidal effect VIOTR (Viola tricolor [10]; [13]) [%] |
| --- | --- | --- | --- | --- | --- | --- | --- | --- | --- | --- | --- | --- | --- | --- | --- | --- |
| Nc1nsc2c(=O)n(CC3CCCCC3Cl)cc(Cl)c12 (racemic) [Example I-156] | 100 | 100 | 100 | 100 | 100 | 100 | 100 | 100 | 100 | 100 | 100 | 100 | 80 | – | – | – |
| O=C(Nc1nsc2c(=O)n(CC3CCCCC3Cl)cc(Cl)c12)C(F)F (racemic) [Example I-160] | 100 | 100 | 100 | 100 | 100 | 100 | 100 | 100 | 100 | 100 | 100 | 100 | 80 | – | – | – |
| O=C(Nc1nsc2c(=O)n(CC3CCCCC3Cl)cc(Cl)c12)C(F)(F)C(F)(F)F (racemic) [Example I-161] | 100 | 100 | 100 | 100 | 100 | 100 | 100 | 100 | 100 | 100 | 100 | 100 | 80 | – | – | – |
| O=C(Nc1nsc2c(=O)n(CC3CCCCC3Cl)cc(Cl)c12)C(F)(F)F (racemic) [Example I-171] | 100 | 100 | 100 | 100 | 100 | 100 | 100 | 100 | 100 | 100 | 100 | 100 | 90 | – | – | – |
| COCc1cc2c(N)nsc2c(=O)n1CC1CCCCC1 [Example I-028] | 90 | 90 | 100 | 100 | 100 | 90 | – | – | – | – | – | – | – | – | – | – |
| CCC(=O)Nc1nsc2c(=O)n(CC3CCCCC3)c(CC)cc12 [Example I-029] | 90 | 100 | 90 | 90 | 100 | 90 | – | – | – | – | – | – | – | – | – | – |
| O=C(Nc1nsc2c(=O)n(CC3CCCCC3)c(CO)cc12)C(F)(F)C(F)(F)F [Example I-047] | 80 | 100 | 90 | 100 | 100 | 90 | – | – | – | – | – | – | – | 90 | 90 | 100 |
| CCC(=O)Nc1nsc2c(=O)n(CC3CCCCC3)c(CO)cc12 [Example I-048] | 80 | 100 | 100 | 100 | 100 | 90 | – | – | – | – | – | – | – | 100 | 100 | 100 |
| Nc1nsc2c(=O)n(CC3CCCCC3)cc(Br)c12 [Example I-054, 3-amino-4-bromo-6-(cyclohexylmethyl)isothiazolo[5,4-c]pyridin-7-one] | 90 | 100 | 100 | 100 | 100 | 100 | – | – | – | – | – | – | – | 100 | 100 | 100 |
| O=C(Nc1nsc2c(=O)n(CC3CCCCC3)cc(Br)c12)C(F)(F)C(F)(F)F [Example I-077] | 100 | 100 | 100 | 100 | 100 | 90 | – | – | – | – | – | – | – | 100 | 90 | 90 |
| O=C(Nc1nsc2c(=O)n(CC3CCCCC3)cc(Cl)c12)C(F)(F)C(F)(F)F [Example I-081] | 100 | 100 | 100 | 100 | 100 | 100 | – | – | – | – | – | – | – | 100 | 100 | 100 |
| CCC(=O)N(C(=O)CC)c1nsc2c(=O)n(CC3CCCCC3)cc(Cl)c12 [Example I-082] | – | 100 | 100 | – | 100 | – | – | – | – | – | – | – | – | 100 | 100 | 100 |
| COCC(=O)Nc1nsc2c(=O)n(CC3CCCCC3)cc(Cl)c12 [Example I-085] | – | 100 | 100 | – | 100 | – | – | – | – | – | – | – | – | 100 | 100 | 100 |
| O=C(Nc1nsc2c(=O)n(CC3CCCCC3)cc(Cl)c12)C(F)(F)F [Example I-086] | 100 | 100 | 100 | 100 | 100 | 100 | – | – | – | – | – | – | – | 100 | 100 | 100 |
| O=C(Nc1nsc2c(=O)n(CC3CCCCC3)cc(Br)c12)C(F)(F)F [Example I-088] | 100 | 100 | 100 | 100 | 100 | 100 | – | – | – | – | – | – | – | 100 | 100 | 100 |
| COCC#Cc1cn(CC2CCCCC2)c(=O)c2snc(N)c12 [Example I-103] | – | 90 | 80 | – | 100 | – | – | – | – | – | – | – | – | 100 | 100 | 100 |
| C/C=C/c1cn(CC2CCCCC2)c(=O)c2snc(N)c12 [Example I-118] | – | 90 | 90 | – | 80 | – | – | – | – | – | – | – | – | 100 | 100 | 100 |
| N#Cc1cn(CC2CCCCC2)c(=O)c2snc(N)c12 [Example I-135] | – | 100 | 100 | – | 100 | – | – | – | – | – | – | – | – | 100 | 90 | 100 |
| CC(C)(C)OC(=O)OC1CN(CC2CCCCC2)C(=O)c2snc(N)c21 (stereo not shown) [Example I-138] | 100 | 100 | 100 | 100 | 100 | 90 | – | – | – | – | – | – | – | 100 | 80 | 100 |
